Test results published in PubChem BioAssay (NCI).
Values joined by “and” are separate entries in the source; they are usually repeats but may differ in a detail not shown here. Equal values may be shown once.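 Cultured in 96-well plates, cells were exposed to test compound for 48 hours across five concentrations. Abbreviation: GI50, concentration required for 50% inhibition of growth. At the TGI there is no net growth.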

Tested on: MDA-MB-468 breast
Assay: inhibition of tumour cell growth, NCI panel, 48 h

| SMILES | GI50 | TGI |
| --- | --- | --- |
| CCc1ccc2c(c1)N(CCO)C1=C(C(=O)OC1)C2c1cccc(Br)c1 (stereo not drawn) | 164 nM | 660 nM |
| C/C(=C\c1ccc2ccccc2c1)[N+](=O)[O-] | 1560 nM | 3060 nM |
| CC(C)C[C@H](NC(=O)CNC(=O)c1cc(Cl)ccc1Cl)B1OC(=O)CC(CC(=O)O)(C(=O)O)O1 (stereo partly drawn) | 17 nM | 38.5 nM |
| Cc1ccc(/C=N\NC(=O)c2[nH]c3ccc(F)cc3c2-c2ccccc2)cc1 | 24 nM | 67.4 nM |
| CN1CCN(C(=O)c2cc(-c3ccc4ncnc(N5CCc6cc(F)c(Cl)cc65)c4c3)cnc2N)CC1 | 120 nM | 365 nM |
| CN=c1ccc2nc3ccc(N)cc3sc-2c1 | 2900 nM | 17100 nM |
| N#Cc1c(N2CCOCC2)nc(=S)[nH]c1-c1ccco1 | 3510 nM | > 100000 nM |
| FC(F)(F)c1ccc(-c2cnc(-c3ncon3)nc2NC2CCCCCC2)cc1 | 48500 nM | > 100000 nM |
| COc1ccc(-c2[nH]c3ccccc3c2-c2ccc(OC)cc2)cc1 | 2430 nM | 7180 nM |
| CC(C)NCCCn1c(Sc2cc3c(cc2I)OCO3)nc2c(N)ncnc21 | 82.7 nM | 3620 nM |
| O=C1c2cccnc2C(=O)c2c1c(C(=O)NCCCN1CCCCC1)c1ccccn21 | 531 nM | 1890 nM |
| COc1cc2c(cc1OCCCn1c(-c3ccccn3)nc3ccccc31)N=C[C@@H]1CCCN1C2=O | 1940 nM | 5640 nM |
| OCC1OC(n2cnc3c(N/N=C\c4ccccn4)ncnc32)C(O)C1O (stereo not drawn) | 187 nM | 508 nM |
| CCCCCCCCCCCCCCCCCC1=NCCN1CCOC1=C(Cl)C(=O)c2ccccc2C1=O | 1640 nM | 3270 nM |
| CCOc1ccccc1C(=O)N1CCN(c2cc(Cl)cc(Cl)c2)CC1 | 29.2 nM | 2870 nM |
| CN[C@@H](C)C(=O)N[C@H](C(=O)N1CCC[C@H]1C(=O)Nc1sc(-c2ncco2)nc1-c1ccccc1)C1CCCCC1 | 11400 nM | 35700 nM |
| CN(C)CCCn1c(=O)c2ccccc2c2ccccc21 | 6180 nM | 20100 nM |
| COc1ccc(-c2nc(Nc3cc(C)[nH]n3)c3ccccc3n2)cc1 | 3120 nM | > 53400 nM |
| O=C1OCC2=C1C(c1ccc(Cl)c(Cl)c1)c1cc3c(cc1N2CCO)OCCO3 (stereo not drawn) | 95 nM | 394 nM |
| C#Cc1nc(/C=C/CCCCCCC(=O)NO)cs1 | 2130 nM | 8650 nM |
| OCc1ccc(N2CCCC2c2ccccc2)cc1Cl (stereo not drawn) | 117 nM | 448 nM |
| O=C1/C(=C/c2ccccc2[N+](=O)[O-])Cc2ccccc21 | 1380 nM | 3030 nM |
| CCCCCCCCCCCCCCCCCC[n+]1ccc2c(C)c3c(c(C)c2c1)c1cc(O)ccc1n3CC | 628 nM | 4110 nM |

| SMILES | GI50 | TGI |
| --- | --- | --- |
| CCCN(CCS(C)(=O)=O)Cc1ccc(-c2ccc3ncnc(Nc4ccc(OCc5cccc(F)c5)c(Cl)c4)c3c2)o1 | 75.2 nM | 877 nM |
| O=C1OCC2=C1C(c1ccccc1)c1cc3c(cc1N2)OCO3 (stereo not drawn) | 27 nM | 600 nM |
| O=S(=O)(Nc1cc(Sc2cccc3cccnc23)c(O)c2ccccc12)c1ccc(F)cc1 | 1800 nM | 4080 nM |
| c1cnn2ncc(-c3ccnc(NCCCN4CCOCC4)n3)c2c1 | 3450 nM | 10000 nM |
| O=C(Nc1ccc(OCc2nnc(-c3ccc(Cl)cc3)o2)c(F)c1)Nc1ccc(Cl)c(C(F)(F)F)c1 | 1800 nM | 7370 nM |
| O=C1CCC(N2Cc3cc(CNC(=O)C(F)(F)c4ccc(Cl)cc4)ccc3C2=O)C(=O)N1 (stereo not drawn) | 48.1 nM |  |
| O=S(=O)(c1ccc(Cl)cc1)C(Cl)(Cl)Cl | 1440 nM | 5500 nM |
| Nc1nc(OCc2ccccc2)c2[nH]cnc2n1 | 28100 nM and 34900 nM | 207000 nM |
| CN1C(=O)N(C)C2C1NN=c1s/c(=C\c3ccc(C(F)(F)F)cc3)c(=O)n12 (stereo not drawn) | 510 nM | 26200 nM |
| CC(C)=CCc1c(O)c(CC=C(C)C)c2c(c1O)C(=O)C1=C[C@@H]3C[C@H]4C(C)(C)O[C@@](C/C=C(\C)C(=O)O)(C3=O)[C@@]14O2 | 24100 nM | 48600 nM |
| O=C1c2c(c3c4ccccc4[nH]c3c3ccc4ccccc4c23)C(=O)N1CCN1CCNCC1 | 1650 nM | 3300 nM |
| CNCCCNCCCCNCCCN1C(=O)c2ccc3c4c(ccc(c24)C1=O)C(=O)N(CCCNCc1ccccc1OC)C3=O | 1890 nM | 11700 nM |
| C=CC(=O)Nc1cccc(Oc2nc(Nc3ccc(N4CCN(C)CC4)cc3)nc3ccsc23)c1 | 267 nM and 570 nM | 1750 nM and 3360 nM |
| COc1ccc2cc1Oc1ccc(cc1)C[C@H]1c3c(cc4c(c3Oc3cc5c(cc3OC)CCN(C)[C@@H]5C2)OCO4)CCN1C | 593 nM | 2310 nM |
| CN1CCN(Cc2ccc(NC(=O)c3cncc(C#Cc4cnc(N)nc4)c3)cc2C(F)(F)F)CC1 | 684 nM | 7660 nM |
| COc1ccc2c(c1)N(CCO)C1=C(C(=O)OC1)C2c1cccc(F)c1 (stereo not drawn) | 202 nM |  |
| CO[C@H]1CC(O[C@@H]2/C(C)=C/C[C@@H]3C[C@@H](C[C@]4(C=C[C@H](C)[C@@H](C5CCCCC5)O4)O3)OC(=O)[C@@H]3C=C(C)[C@@H](O)[C@H]4OC/C(=C\C=C\[C@@H]2C)[C@]43O)O[C@@H](C)C1O[C@H]1C[C@H](OC)[C@@H](O)[C@H](C)O1 (stereo partly drawn) | 1400 nM | 3010 nM |
| O=C(/C=C\c1cccc([N+](=O)[O-])c1)/C=C/c1cccc([N+](=O)[O-])c1 | 3430 nM | 55500 nM |
| CC1=C2[C@@H](CC1)[C@]1(C)O[C@@](c3ccccc3)(C[C@H]1OC(=O)CO)[C@H]2OC(=O)/C=C/c1ccccc1 | 17900 nM | 46000 nM |
| C[C@@H]1CN(Cc2ccc(F)cc2)[C@@H](C)CN1C(=O)c1cc2c(C(=O)C(=O)N(C)C)cn(C)c2cc1Cl | 13300 nM | 45000 nM |
| C1CCC([PH+](C2CCCCC2)C2CCCCC2[PH+](C2CCCCC2)C2CCCCC2)CC1.[Au].[CH-]1CCCCC1CC1CCCC[N-]1 (stereo not drawn) | 161 nM | 631 nM |
| O=C(/C=C/c1cc2ccccc2[nH]c1=O)/C=C/c1cc2ccccc2[nH]c1=O | 7330 nM | 15500 nM |
